Experimental data taken from US6559158B1, “Use of methylnaltrexone and related compounds to treat chronic opioid use side affects” (UR Labs, Inc., priority 1997, dated 2003).

What was measured:
[1] = tested on: chronic methadone subjects with methadone-induced constipation; assay: Example 1: intravenous methylnaltrexone, laxation response and stool frequency in methadone maintenance subjects; format: in vivo, human; conditions: for Stool frequency Methylnaltrexone (per day): during iv methylnaltrexone treatment
Method: Methylnaltrexone dose of 0.45 mg/kg was chosen to start this trial because this dose was previously given in normal volunteers and prevented opioid-induced delay of the oral-cecal transit time without any side effects (Yuan et al., Clin. Pharmacol Ther., 59:469-475 (1996)). Drug administration was performed single blind to the subjects in this pilot study. Thus, methylnaltrexone dose could be adjusted based on subjects' clinical response during the study.
All four subjects received placebo (normal saline) on Day 1. Thereafter, subjects received intravenous methylnaltrexone until the end of the study.
On Day 2 at 09:00 hours (h), Subjects 1 and 2 were given 0.45 mg/kg intravenous methylnaltrexone over 1 min. Subject 2 experienced severe abdominal cramps after receiving the compound and was withdrawn from the study. […] Beginning on Day 4, the study was resumed for Subject 1 using 0.45 mg/kg of methylnaltrexone, diluted with 50 ml normal saline and administered over 30 min. Infusion could be stopped at any time for complaints of abdominal pain.
For Subjects 3 and 4, the study was shortened from 8 to 5 days, methylnaltrexone dosage was decreased, and a new, three-step dosing procedure was established. Methylnaltrexone 0.05 mg/kg, mixed in 30 ml normal saline (first syringe), was infused intravenously over 10 min. The subject was then observed 10 min for drug response. If there was no response, then methylnaltrexone 0.1 mg/kg (second syringe), mixed in 30 ml normal saline, was infused over 15 min. Subject was observed 15 min for drug response. If there was no response, then methylnaltrexone 0.3 mg/kg (third syringe), mixed in 30 ml normal saline, was infused over 15 min.
(§1) After each test drug administration, seven blood samples (5 ml each) were obtained at time 0, 5, 30 min, and 1, 2, 4, 8 h, and three urine samples were collected at time 0, 2, and 4 h. Plasma and urine methylnaltrexone levels were determined by an HPLC technique with a detection limit of 2 ng/ml (Kim et al., 1989; Yuan et al., Clin. Pharmacol Ther., 59:469-475 (1996); both herein incorporated by reference). […] Subjects' bowel movements were witnessed and recorded by a research nurse.

[2] = tested on: chronic methadone subjects; assay: Example 1: oral-cecal transit time (lactulose hydrogen breath test); format: in vivo, human; conditions: 150 min after placebo
Method: Vital signs were obtained at 0, 5, 10, 30, 60, 90 and 120 min after each test drug administration. For oral-cecal transit time measurement, 10 g lactulose (Solvay Pharmaceuticals, Marietta, Ga.) was administered orally at 09:00 h of Day 1, Day 5 and Day 8 for Subject 1; of Day 1 for Subject 2, and of Day 1, Day 3 and Day 5 for Subjects 3 and 4. Illicit drug use was monitored by random urine drug screens.
(§2) The oral-cecal transit time was assessed by the pulmonary hydrogen (H2) measurement technique, which measures pulmonary H2 that is produced when unabsorbed lactulose is fermented by colonic bacteria and excreted in the breath. This H2 production is reflected by a concomitant increase in breath H2 excretion. […] Dis. Sci., 32:829-832 (1987)). Hydrogen breath tests were conducted every 15 min until oral-cecal transit time was determined.

[3] = Example 1: peak plasma methylnaltrexone level (HPLC); format: in vivo, human
Method: as §1

[4] = tested on: chronic methadone subjects; assay: Example 2: oral-cecal transit time (lactulose hydrogen breath test); format: in vivo, human
Method: as §2
The oral-cecal transit time was assessed as in Example 1.

[5] = Example 2: plasma levels and urinary excretion of methylnaltrexone; format: in vivo, human; conditions: for Peak plasma level: iv, mean±SD
Method: as §1
Blood and Urine Sampling and Analysis were Performed as in Example 1.

[6] = tested on: chronic methadone subjects; assay: Example 3: oral methylnaltrexone, opioid withdrawal and adverse effects; conditions: oral 0.3-3.0 mg/kg
Method: Since oral medication is a safer and more convenient way to deliver drugs than is intravenous administration, the efficacy of oral MNTX in relieving constipation in methadone maintained patients was evaluated. Twelve constipated adults (≦2 stool/week) were enrolled. Their daily methadone dose was 73.3±16.2 mg (41-100 mg), mean±SD (range). On day 1 at 9AM, subjects ingested 10 g lactulose (Solvay Pharmaceuticals) to assess oral-cecal transit time as described above, and a placebo capsule. On day 2 at 9AM, subjects again received lactulose, and a capsule containing methylnaltrexone (Mallinckrodt). Ascending oral methylnaltrexone doses (0.3, 1.0, and 3,0 mg/kg) were given to 3 groups of 4 subjects per group. Drug administrations were single-blinded to the subject. Laxation response and potential opioid withdrawal were recorded and blood samples were collected.

[7] = tested on: normal volunteers; assay: FIG. 5: oral-cecal transit time of normal volunteers given MNTX; format: in vivo, human; conditions: normal subjects, doses 2.1 mg/kg to 6.4 mg/kg (FIG. 5)
Method: FIG. 5 is a comparison of oral-cecal transit times of normal volunteers and methadone maintenance subjects showing the increased responsiveness of chronic opioid patients to MNTX. At doses ranging from 2.1 mg/kg to 6.4 mg/kg, normal subjects experienced about a 15-20% reduction in oral-cecal transit time, while at a dose of 3.0 mg/kg, methadone subjects experienced a greater than 35% reduction in oral-cecal transit time.

[8] = Absorption after oral administration of non-enteric coated compound; format: in vivo
Method: Methylnaltrexone is rapidly absorbed after oral administration from the stomach and bowel. Initial plasma levels of the drug are seen within 5-10 minutes of the administration of non-enteric coated compound. Addition of an enteric coating which prevents gastric absorption is associated with lower plasma levels of the methylnaltrexone.

[9] = intravenous; cited from earlier work
[10] = humans; cited from earlier work

C[N@+]1(CC2CC2)CC[C@]23c4c5ccc(O)c4O[C@H]2C(=O)CC[C@@]3(O)[C@H]1C5 [methylnaltrexone, N-methylnaltrexone bromide]
Laxation response ([1]; Subjects 1 and 2, 0.45 mg/kg iv): immediate positive Taxation
Laxation response ([1]; Subjects 3 and 4, 0.05-0.15 mg/kg iv twice daily for 4 consecutive days): immediate laxation response
Stool frequency Methylnaltrexone (per day) ([1]; #1 0.45 mg/kg bid, #2 0.45 mg/kg, #3 and #4 0.05-0.15 mg/kg bid, iv methylnaltrexone 0.45 mg/kg): 1 per day
Stool frequency Methylnaltrexone (per day) ([1]; #1 0.45 mg/kg bid, #2 0.45 mg/kg, #3 and #4 0.05-0.15 mg/kg bid, iv methylnaltrexone 0.05-0.15, bid mg/kg): 2 per day
Stool frequency Methylnaltrexone (per day) ([1]; #1 0.45 mg/kg bid, #2 0.45 mg/kg, #3 and #4 0.05-0.15 mg/kg bid, iv methylnaltrexone 0.05-015, bid mg/kg): 1.3 per day
Stool frequency Methylnaltrexone (per day) ([1]; #1 0.45 mg/kg bid, #2 0.45 mg/kg, #3 and #4 0.05-0.15 mg/kg bid, iv methylnaltrexone 0.45, bid mg/kg): 1.5 per day
stool frequency during the treatment period ([1]; four subjects, iv methylnaltrexone, 1-2 times per week before the study): approximately 1.5 stool per day
Laxation response ([1]; iv methylnaltrexone, #1 0.45 mg/kg bid, #2 0.45 mg/kg, #3 and #4 0.05-0.15 mg/kg bid): Immediate
oral-cecal transit time after methylnaltrexone, at the end of the study ([2]; Subject 1, 0.45 mg/kg iv bid): 90 min
oral-cecal transit time after methylnaltrexone, at the end of the study ([2]; Subject 3, 0.05-0.15 mg/kg iv bid): 60 min
oral-cecal transit time after methylnaltrexone, at the end of the study ([2]; Subject 4, 0.05-0.15 mg/kg iv bid): 60 min
Peak plasma methylnaltrexone level ([3]; Subject 1, 0.45 mg/kg iv): 1.65 µg/mL
Peak plasma methylnaltrexone level ([3]; Subject 2, 0.45 mg/kg iv): 1.10 µg/mL
Peak plasma methylnaltrexone level ([3]; Subject 3, 0.05-0.15 mg/kg iv): 0.25 µg/mL
Peak plasma methylnaltrexone level ([3]; Subject 4, 0.05-0.15 mg/kg iv): 0.53 µg/mL
oral-cecal transit time after study drug ([4]; methylnaltrexone group n=11, Day 2, iv, mean±SD, range 30-105, baseline 132.3±36.0): 54.5 ± 19.3 min
average change in oral-cecal transit time from baseline ([4]; methylnaltrexone group n=11, P<0.001 vs placebo group): -77.7 ± 37.2 min
Peak plasma level ([5]; Day 1, 11 subjects, range 30-774): 162 ± 237 ng/mL
percentage of intravenous dose excreted unchanged in urine from 0 to 4 hr ([5]; Day 1, mean±SD, range 9.6-39.9): 23.7±10.5%
Peak plasma level ([5]; Day 2, 11 subjects, range 33-658): 166 ± 177 ng/mL
percentage of intravenous dose excreted unchanged in urine from 0 to 4 hr ([5]; Day 2, mean±SD, range 13.2-73.6): 37.6±17.8%
opioid withdrawal ([6]; any subjects): no opioid withdrawal
abdominal cramping ([6]; most subjects): very mild abdominal cramping
adverse effects [6]: no adverse effects were reported
reduction in oral-cecal transit time [7]: 15-20%
time to initial plasma levels after oral administration [8]: 5 to 10 min
elimination half-life [9]: approximately 2 h
blood-brain barrier passage [10]: does not cross the blood-brain barrier
de-methylation [10]: do not appreciably de-methylate
